Measurements published in PubChem BioAssay (NCI).
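Results reflect a 48-hour exposure of cells in 96-well plates to compound at five concentrations. GI50 marks 50% less growth. At the TGI there is no net growth.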

Experiments:
Test in all cases: DTP human tumour cell line panel, 48 h; in the data active = GI50 below about 0.43 µM; inactive = the rest
786-0 renal = system: 786-0 renal
A498 renal = system: A498 renal
A549 NSCLC = system: A549 NSCLC
ACHN renal = system: ACHN renal
BT-549 breast = system: BT-549 breast
CAKI-1 renal = system: CAKI-1 renal
CCRF-CEM leukemia = system: CCRF-CEM leukemia
COLO 205 colon = system: COLO 205 colon
DU-145 prostate = system: DU-145 prostate
EKVX NSCLC = system: EKVX NSCLC
HCC-2998 colon = system: HCC-2998 colon
HCT-116 colon = system: HCT-116 colon
HCT-15 colon = system: HCT-15 colon
HL-60(TB) leukemia = system: HL-60(TB) leukemia
HOP-62 NSCLC = system: HOP-62 NSCLC
HOP-92 NSCLC = system: HOP-92 NSCLC
HS 578T breast = system: HS 578T breast
IGROV1 ovarian = system: IGROV1 ovarian
K-562 leukemia = system: K-562 leukemia
KM12 colon = system: KM12 colon
LOX IMVI melanoma = system: LOX IMVI melanoma
M14 melanoma = system: M14 melanoma
MCF7 breast = system: MCF7 breast
MDA-MB-231 breast = system: MDA-MB-231 breast
MDA-MB-435 = system: MDA-MB-435
MOLT-4 leukemia = system: MOLT-4 leukemia
NCI-H23 lung = system: NCI-H23 lung
NCI-H460 lung = system: NCI-H460 lung
NCI-H522 lung = system: NCI-H522 lung
NCI/ADR-RES ovarian = system: NCI/ADR-RES ovarian
OVCAR-3 ovarian = system: OVCAR-3 ovarian
OVCAR-4 ovarian = system: OVCAR-4 ovarian
OVCAR-5 ovarian = system: OVCAR-5 ovarian
OVCAR-8 ovarian = system: OVCAR-8 ovarian
PC-3 prostate = system: PC-3 prostate
RPMI-8226 leukemia = system: RPMI-8226 leukemia
RXF 393 renal = system: RXF 393 renal
SF-268 CNS = system: SF-268 CNS
SF-295 CNS = system: SF-295 CNS
SF-539 CNS = system: SF-539 CNS
SK-MEL-2 melanoma = system: SK-MEL-2 melanoma
SK-MEL-28 melanoma = system: SK-MEL-28 melanoma
SK-MEL-5 melanoma = system: SK-MEL-5 melanoma
SK-OV-3 ovarian = system: SK-OV-3 ovarian
SN12C renal = system: SN12C renal
SNB-19 CNS = system: SNB-19 CNS
SNB-75 CNS = system: SNB-75 CNS
SR leukemia = system: SR leukemia
SW-620 colon = system: SW-620 colon
T-47D breast = system: T-47D breast
TK-10 renal = system: TK-10 renal
U251 CNS = system: U251 CNS
UACC-257 melanoma = system: UACC-257 melanoma
UACC-62 melanoma = system: UACC-62 melanoma
UO-31 renal = system: UO-31 renal

CN(C)CCNc1nc2ccccc2c2occc12
68.5 µM: TGI (M14 melanoma)
82.2 µM: TGI (OVCAR-4 ovarian)
86.2 µM: TGI (RXF 393 renal)
85.8 µM: TGI (ACHN renal)
77.6 µM: TGI (MDA-MB-231 breast)
54.4 µM: TGI (SR leukemia)
81.6 µM: TGI (A498 renal)
42.8 µM: TGI (LOX IMVI melanoma)
inactive: GI50 (786-0 renal) 62 µM | GI50 (A498 renal) 48.5 µM | GI50 (A549 NSCLC) 44.7 µM | GI50 (ACHN renal) 28.2 µM | GI50 (BT-549 breast) > 100 µM | GI50 (CAKI-1 renal) 52.7 µM | GI50 (CCRF-CEM leukemia) 20.9 µM | GI50 (COLO 205 colon) 25.2 µM | GI50 (DU-145 prostate) 32 µM | GI50 (EKVX NSCLC) 59.5 µM | GI50 (HCC-2998 colon) 36 µM | GI50 (HCT-116 colon) 34.1 µM | GI50 (HCT-15 colon) 30.1 µM | GI50 (HL-60(TB) leukemia) 49.6 µM | GI50 (HOP-62 NSCLC) 96.2 µM | GI50 (HOP-92 NSCLC) 54.1 µM | GI50 (HS 578T breast) 99.4 µM | GI50 (IGROV1 ovarian) 34.1 µM | GI50 (K-562 leukemia) 25.9 µM | GI50 (KM12 colon) 51.7 µM | GI50 (LOX IMVI melanoma) 19.1 µM | GI50 (M14 melanoma) 28.8 µM | GI50 (MCF7 breast) 32.4 µM | GI50 (MDA-MB-231 breast) 23.7 µM | GI50 (MDA-MB-435) 54.5 µM | GI50 (MOLT-4 leukemia) 20.3 µM | GI50 (NCI-H23 lung) 69.5 µM | GI50 (NCI-H460 lung) 31.7 µM | GI50 (NCI-H522 lung) 62.3 µM | GI50 (NCI/ADR-RES ovarian) 51.8 µM | GI50 (OVCAR-3 ovarian) 97.2 µM | GI50 (OVCAR-4 ovarian) 26.3 µM | GI50 (OVCAR-5 ovarian) 37.2 µM | GI50 (OVCAR-8 ovarian) 62.3 µM | GI50 (PC-3 prostate) 36 µM | GI50 (RPMI-8226 leukemia) 58 µM | GI50 (RXF 393 renal) 31.6 µM | GI50 (SF-268 CNS) 46.6 µM | GI50 (SF-295 CNS) 60.2 µM | GI50 (SF-539 CNS) 35.9 µM | GI50 (SK-MEL-2 melanoma) 33.8 µM | GI50 (SK-MEL-28 melanoma) 27 µM | GI50 (SK-MEL-5 melanoma) 14.5 µM | GI50 (SK-OV-3 ovarian) 85.1 µM | GI50 (SN12C renal) 27.7 µM | GI50 (SNB-19 CNS) 71.7 µM | GI50 (SNB-75 CNS) 11.8 µM | GI50 (SR leukemia) 21.3 µM | GI50 (SW-620 colon) 63.4 µM | GI50 (T-47D breast) > 100 µM | GI50 (TK-10 renal) 60.5 µM | GI50 (U251 CNS) 45.3 µM | GI50 (UACC-257 melanoma) 28.9 µM | GI50 (UACC-62 melanoma) 16.6 µM | GI50 (UO-31 renal) 26.1 µM
89.5 µM: TGI (HCC-2998 colon)
82.5 µM: TGI (SN12C renal)
> 100 µM: TGI (786-0 renal) | TGI (A549 NSCLC) | TGI (BT-549 breast) | TGI (CAKI-1 renal) | TGI (CCRF-CEM leukemia) | TGI (COLO 205 colon) | TGI (DU-145 prostate) | TGI (EKVX NSCLC) | TGI (HCT-116 colon) | TGI (HCT-15 colon) | TGI (HL-60(TB) leukemia) | TGI (HOP-62 NSCLC) | TGI (HOP-92 NSCLC) | TGI (HS 578T breast) | TGI (KM12 colon) | TGI (MCF7 breast) | TGI (MDA-MB-435) | TGI (MOLT-4 leukemia) | TGI (NCI-H23 lung) | TGI (NCI-H460 lung) | TGI (NCI-H522 lung) | TGI (NCI/ADR-RES ovarian) | TGI (OVCAR-3 ovarian) | TGI (OVCAR-8 ovarian) | TGI (PC-3 prostate) | TGI (RPMI-8226 leukemia) | TGI (SF-268 CNS) | TGI (SF-295 CNS) | TGI (SK-MEL-2 melanoma) | TGI (SK-MEL-28 melanoma) | TGI (SK-OV-3 ovarian) | TGI (SNB-19 CNS) | TGI (SNB-75 CNS) | TGI (SW-620 colon) | TGI (T-47D breast) | TGI (TK-10 renal) | TGI (U251 CNS) | TGI (UO-31 renal)
32.2 µM: TGI (SK-MEL-5 melanoma)
34.3 µM: TGI (UACC-62 melanoma)
98.9 µM: TGI (K-562 leukemia)
89.6 µM: TGI (IGROV1 ovarian)
88.4 µM: TGI (OVCAR-5 ovarian)
83.6 µM: TGI (SF-539 CNS)
68.2 µM: TGI (UACC-257 melanoma)
